Drawing on the supplement of paper PMC11061612, this text covers Bliss excess for eight molecules.

Common to all, as to test: Bliss excess, mean over the matrix (fraction); higher = more synergy
Assay [1] relates to ASH-3 (Thyroid Gland Carcinoma). The method in brief:
(§1)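 Cell lines grown in DMEM/F12 or RPMI with 10% FBS were plated in 1536-well plates and held 24 hours at 37°C, 5% CO2 before 72 hours of exposure to two-drug dose matrices, with DMSO typically at 0.2%. CellTiter-Glo 2.0 luminescence gave viability, which was converted to inhibition. Vehicle wells were set to 0 and blank wells to 1. Combination Emax is the second-highest inhibition in the matrix, and Bliss excess is the observed combination effect minus the expected EA + EB − EA·EB, where EA and EB are the single-agent effects.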

A further assay concerns BT-20 (Breast Carcinoma). The procedure, abridged: as §1
Assay [2] deals with BV-173 (Chronic Myelogenous Leukemia). The method in brief: as §1
The subject of assay [3] is EBC-1 (Squamous Cell Lung Carcinoma). The method in brief:
as §1

For a further assay, the system named is EW-13 (Ewing's Sarcoma). The method in brief:
as §1

The test system of another assay is EW-18 (Ewing's Sarcoma). The procedure, abridged:
as §1

The subject of another assay is GOTO (Neuroblastoma). The method in brief:
as §1

Assay [4] relates to LOU-NH91 (Squamous Cell Lung Carcinoma). The procedure, abridged:
as §1

Assay [5] has as its system NCI-H2405 (Lung Adenocarcinoma). The procedure, abridged: as §1
Assay [6] deals with NCI-H322M (Lung Adenocarcinoma). The method in brief:
as §1

Assay [7] concerns NCI-H513 (Other Solid Carcinomas). The method in brief: as §1
The next assay relates to NH-12 (Neuroblastoma). The method in brief:
as §1

The subject of assay [8] is OVISE (Ovarian Carcinoma). The method in brief: as §1
Assay [9] relates to PFSK-1 (Other Solid Carcinomas). The procedure, abridged: as §1
Assay [10] has as its system H-EMC-SS (Chondrosarcoma). The procedure, abridged: as §1
Assay [11] relates to HSC-2 (Oral Cavity Carcinoma). The method in brief: as §1
Assay [12] concerns KINGS-1 (Low Grade Glioma). The method in brief: as §1
In assay [13] the test system is LC4-1 (B-Lymphoblastic Leukemia). The procedure, abridged: as §1
The subject of assay [14] is VMRC-LCD (Lung Adenocarcinoma). The procedure, abridged: as §1
Assay [15] relates to SCC-9 (Oral Cavity Carcinoma). The method in brief: as §1

With `CC(=O)c1c(C)c2cnc(Nc3ccc(N4CCNCC4)cn3)nc2n(C2CCCC2)c1=O` [Palbociclib] + CN(CC[C@H](CSC1=CC=CC=C1)NC2=C(C=C(C=C2)S(=O)(=O)NC(=O)C3=CC=C(C=C3)N4CCC(CC4)[C@H](C5=CC=CC=C5C6=CC=C(C=C6)Cl)O)S(=O)(=O)C(F)(F)F)CCO [AZD4320] (first compound max 10 µM, 7x7, partner max 1 µM), the Bliss excess was -0.0104 in assay [1]; -0.01 in the assay with BT-20 (Breast Carcinoma); -0.0524 in assay [2]; -0.0226 in assay [3]; -0.121 in the assay on EW-13 (Ewing's Sarcoma); -0.0118 in the assay with EW-18 (Ewing's Sarcoma). For the same molecule, the Bliss excess with GOTO (Neuroblastoma) is 0.0226; in assay [4] it was -0.0157; in assay [5] it was -0.0614; in [6], -0.0711; in assay [7] it was -0.0718; in the assay on NH-12 (Neuroblastoma) it was 0.0594. For the same molecule, the Bliss excess in [8] is -0.0207; in assay [9], 0.016.
Take `Cc1c2c(nn1C)CSCc1cc(n(C)n1)CSc1cc(c3ccccc3c1)OCCCc1c(C(=O)O)n(C)c3c-2c(Cl)ccc13` [AZD5991] + CCN(CCO)CCCOc1ccc2c(Nc3cc(CC(=O)Nc4cccc(F)c4)[nH]n3)ncnc2c1 [AZD2811] (first compound max 1 µM, 7x7, partner max 1 µM): the Bliss excess in assay [1] was -0.014; in the assay with BT-20 (Breast Carcinoma), 0.108; in [2], -0.0554; in [3], 0.0019; in the assay with EW-13 (Ewing's Sarcoma) it was 0.032; with EW-18 (Ewing's Sarcoma) it was -0.0209. In addition, the Bliss excess was -0.0245 in the assay on GOTO (Neuroblastoma); 0.027 in assay [10]; 0.0322 in [11]; -0.0253 in [12]; -0.0464 in assay [13]; 0.0225 in assay [4]. In addition, the Bliss excess in [5] was -0.0164; in assay [6], -0.0057; in assay [7] it was -0.0026; in the assay on NH-12 (Neuroblastoma), -0.0331; in assay [8] it was 0.0535; in assay [9], -0.0393. For the same molecule, in assay [14], the Bliss excess is -0.0133.
Take `COc1nnc2ccc(N3CCC(c4ccc(OCCN5CCN(C)C(=O)[C@H]5C)cc4)CC3)nn12` [AZD5153] + CN(CC[C@H](CSC1=CC=CC=C1)NC2=C(C=C(C=C2)S(=O)(=O)NC(=O)C3=CC=C(C=C3)N4CCC(CC4)[C@H](C5=CC=CC=C5C6=CC=C(C=C6)Cl)O)S(=O)(=O)C(F)(F)F)CCO [AZD4320] (first compound max 1 µM, 7x7, partner max 1 µM): the Bliss excess in [1] is 0.107; with BT-20 (Breast Carcinoma), -0.0001; in assay [2], -0.0879; in assay [3], 0.0628; with EW-13 (Ewing's Sarcoma) it was -0.0243; with EW-18 (Ewing's Sarcoma) it was 0.0033. Moreover, the Bliss excess in the assay with GOTO (Neuroblastoma) was 0.065; in assay [4], -0.0215; in assay [5], 0.0342; in [6], 0.0066; in assay [7], -0.0177; with NH-12 (Neuroblastoma), -0.0413. In addition, the figures for the Bliss excess in assay [8] and in assay [9] were 0.0504 and 0.0145, respectively.
`CN(C)CCCOc1ccc(-c2ccc3ncc4c(c3c2)n(C2CCOCC2)c(=O)n4C)cn1` [AZD0156] + O=C(c1cc(Cc2n[nH]c(=O)c3ccccc23)ccc1F)N1CCN(C(=O)C2CC2)CC1 [Olaparib] (first compound max 3 µM, partner max 3 µM): the Bliss excess is -0.0311 in assay [1]; 0.0209 in the assay on BT-20 (Breast Carcinoma); 0.092 in assay [2]; 0.0413 in assay [3]; 0.172 with EW-18 (Ewing's Sarcoma); 0.0036 with GOTO (Neuroblastoma). The Bliss excess in [10] is 0.029; in assay [11] it was 0.156; in assay [12], -0.0057; in assay [13], 0.25; in assay [4], -0.0153; in assay [5], -0.0471. The Bliss excess in assay [6] was 0.0142; in assay [7] it was -0.0347; in the assay with NH-12 (Neuroblastoma) it was -0.0131; in assay [8], -0.0084; in assay [9], 0.0954; in assay [15], 0.0741. Also, the Bliss excess in assay [14] was -0.0489.
On to `COc1cccc(OCCCN)c1-c1cc(Nc2cnc(C#N)cn2)n[nH]1` [Prexasertib] + O=C(c1cc(Cc2n[nH]c(=O)c3ccccc23)ccc1F)N1CCN(C(=O)C2CC2)CC1 [Olaparib] (first compound max 1 µM, 7x7, partner max 10 µM), for which the Bliss excess in assay [1] is 0.027; with BT-20 (Breast Carcinoma) it was 0.0405; in [2], 0.0169; in [3], -0.0052; in the assay with EW-13 (Ewing's Sarcoma), -0.0562; in the assay with EW-18 (Ewing's Sarcoma), -0.0677. Further, the Bliss excess in the assay on GOTO (Neuroblastoma) was -0.101; in [10], -0.0445; in assay [11] it was -0.0206; in [12], -0.0979; in assay [13] it was -0.0432; in [4], 0.0427. The Bliss excess in assay [5] is -0.0339; in assay [6] it was -0.126; in assay [7], -0.0162; in the assay on NH-12 (Neuroblastoma), -0.0746; in assay [8] it was -0.0578; in assay [15], -0.0181. The Bliss excess in assay [14] is -0.0955.
On to `COc1cccc(OCCCN)c1-c1cc(Nc2cnc(C#N)cn2)n[nH]1` [Prexasertib] + Cc1cc2ncnn2cc1Nc1ncc2c(n1)n(C1CCOCC1)c(=O)n2C [AZD7648] (first compound max 1 µM, 7x7, partner max 10 µM), for which the Bliss excess in [1] is 0.0598; in the assay on BT-20 (Breast Carcinoma), -0.0536; in assay [2] it was -0.0218; in [3] it was -0.0054; in the assay on EW-13 (Ewing's Sarcoma) it was -0.015; with EW-18 (Ewing's Sarcoma) it was -0.0679. The Bliss excess with GOTO (Neuroblastoma) is -0.0243; in assay [10] it was -0.021; in assay [11], -0.0403; in [12], -0.0464; in assay [13], -0.0209; in [4], 0.007. The Bliss excess in assay [5] is -0.0386; in [6], -0.0083; in assay [7], 0.0134; in the assay with NH-12 (Neuroblastoma) it was -0.0133; in assay [8], -0.0333; in assay [15] it was 0.0092. The Bliss excess in assay [14] was -0.0323.
For the molecule `C[C@@H]1COCCN1c1cc(C2([S@](C)(=N)=O)CC2)nc(-c2ccnc3[nH]ccc23)n1` [AZD6738] + O=C(c1cc(Cc2n[nH]c(=O)c3ccccc23)ccc1F)N1CCN(C(=O)C2CC2)CC1 [Olaparib] (first compound max 10 µM, 7x7, partner max 10 µM), the Bliss excess was 0.0361 in [1]; 0.0472 in the assay with BT-20 (Breast Carcinoma); -0.0099 in assay [2]; -0.0153 in [3]; -0.0574 in the assay on EW-13 (Ewing's Sarcoma); 0.0292 in the assay with EW-18 (Ewing's Sarcoma). For the same molecule, the Bliss excess is -0.0645 with GOTO (Neuroblastoma); -0.0558 in assay [10]; 0.0825 in [11]; 0.0032 in assay [12]; -0.009 in assay [13]; 0.0035 in assay [4]. Further, the Bliss excess in assay [5] was 0.0132; in assay [6], -0.0491; in assay [7] it was 0.0157; in the assay with NH-12 (Neuroblastoma), -0.0308; in [8], 0.0393; in [15], 0.0422. Moreover, the Bliss excess in [14] is -0.0231.
For `CS(=O)(=O)CCNCc1ccc(-c2ccc3ncnc(Nc4ccc(OCc5cccc(F)c5)c(Cl)c4)c3c2)o1` [Lapatinib] + NC1(c2ccc(-c3nc4ccn5c(=O)[nH]nc5c4cc3-c3ccccc3)cc2)CCC1 [MK-2206] (first compound max 10 µM, 7x7, partner max 10 µM), the Bliss excess in assay [1] is 0.0178; in assay [10], -0.0597; in [11], 0.0806; in assay [12] it was 0.032; in [13], -0.0073; in assay [5] it was -0.111. Also, the Bliss excess in assay [7] was -0.0369; in assay [8], 0.0286; in assay [9], -0.0286; in assay [15], 0.0038; in assay [14], -0.0273.
